Reference: PubChem BioAssay (NCI)
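Briefly, cells in 96-well plates were exposed to five compound concentrations for 48 h, and endpoints were estimated by linear interpolation. TGI is the concentration that stops growth completely.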

The compounds below were run on SF-268 CNS (assay: growth of human tumour cells (NCI), 48 h).
`O=[N+]([O-])c1cccc2nc3ccccc3c(NCCCCNc3c4ccccc4nc4cccc([N+](=O)[O-])c34)c12` was tested, and the TGI was 0.189 µM. `NC(=O)c1ccc(C(=O)Nc2ccc([As](=O)(O)O)cc2)cc1` showed a TGI of over 100 µM. Compound `O=C1NC(N/N=C/C(O)C(O)C(O)C(O)CO)=N/C1=C\c1ccco1` (stereo not given) has a TGI of over 100 µM. Work on `C=C(C)[C@@H]1CCC2=C[C@@H](OC2=O)[C@@H](C(=C)C)C2=CC(C(=O)O)=C(C1)O2` yielded a TGI of over 100 µM. Work on `CC1OC(OC2C(O[C@H]3CC[C@@H]4C(=CC[C@@H]5[C@@]4(C)C(=O)C[C@]4(C)[C@@H]([C@H](C)CC[C@@H](O)C(C)(C)O)CC[C@@]54C)C3(C)C)OC(CO)C(O)C2O)C(O)C(O)C1O` (stereo not given in full) yielded a TGI of over 100 µM. With `c1ccc(C(C2=Nc3cccc4cccc(c34)N2)c2ccccc2)cc1` the TGI was 66.1 µM. Work on `CC1=CC(=O)[C@@H](O)[C@]2(C)[C@H]3[C@@]4(O)OC[C@]35[C@H]([C@@H](C)[C@H]4O)[C@@H](OC(=O)C(C)(C)CO)C(=O)O[C@@H]5C[C@@H]12` yielded a TGI of 0.236 µM.

These compounds were tested on SF-539 CNS (assay: growth of human tumour cells (NCI), 48 h).
Work on `CN(Cc1cnc2nc(N)nc(N)c2n1)c1ccc(C(=O)NCCS(=O)(=O)O)cc1` yielded a TGI of over 100 µM. Compound `O=C(C1OC1c1ccc(Cl)cc1)C12CC3CC(CC(C3)C1)C2` (stereo not given) has a TGI of 32.5 µM. `O=[N+]([O-])c1cccc2nc3ccccc3c(NCCCCNc3c4ccccc4nc4cccc([N+](=O)[O-])c34)c12` was tested, and the TGI was 0.102 µM. Work on `O=C1NC(N/N=C/C(O)C(O)C(O)C(O)CO)=N/C1=C\c1ccco1` (stereo not given) yielded a TGI of over 100 µM. Compound `C=C(C)[C@@H]1CCC2=C[C@@H](OC2=O)[C@@H](C(=C)C)C2=CC(C(=O)O)=C(C1)O2` has a TGI of over 100 µM. With `CC1OC(OC2C(O[C@H]3CC[C@@H]4C(=CC[C@@H]5[C@@]4(C)C(=O)C[C@]4(C)[C@@H]([C@H](C)CC[C@@H](O)C(C)(C)O)CC[C@@]54C)C3(C)C)OC(CO)C(O)C2O)C(O)C(O)C1O` (stereo not given in full) the TGI was over 100 µM. In the case of `c1ccc(C(C2=Nc3cccc4cccc(c34)N2)c2ccccc2)cc1`, the TGI is reported as 34.2 µM. Work on `CC1=CC(=O)[C@@H](O)[C@]2(C)[C@H]3[C@@]4(O)OC[C@]35[C@H]([C@@H](C)[C@H]4O)[C@@H](OC(=O)C(C)(C)CO)C(=O)O[C@@H]5C[C@@H]12` yielded a TGI of under 0.0261 µM.

The compounds below were run on OVCAR-4 ovarian (assay: growth of human tumour cells (NCI), 48 h).
Work on `CN(Cc1cnc2nc(N)nc(N)c2n1)c1ccc(C(=O)NCCS(=O)(=O)O)cc1` yielded a TGI of over 100 µM. Compound `O=C1NC(N/N=C/c2ccccc2)=N/C1=C\c1ccco1` has a TGI of over 100 µM. In the case of `O=C(C1OC1c1ccc(Cl)cc1)C12CC3CC(CC(C3)C1)C2` (stereo not given), the TGI is reported as 40 µM. Compound `O=[N+]([O-])c1cccc2nc3ccccc3c(NCCCCNc3c4ccccc4nc4cccc([N+](=O)[O-])c34)c12` has a TGI of 0.508 µM. `NC(=O)c1ccc(C(=O)Nc2ccc([As](=O)(O)O)cc2)cc1` showed a TGI of over 100 µM. Work on `O=C1NC(N/N=C/C(O)C(O)C(O)C(O)CO)=N/C1=C\c1ccco1` (stereo not given) yielded a TGI of over 100 µM. `C=C(C)[C@@H]1CCC2=C[C@@H](OC2=O)[C@@H](C(=C)C)C2=CC(C(=O)O)=C(C1)O2` gave a TGI of over 100 µM. `CC1OC(OC2C(O[C@H]3CC[C@@H]4C(=CC[C@@H]5[C@@]4(C)C(=O)C[C@]4(C)[C@@H]([C@H](C)CC[C@@H](O)C(C)(C)O)CC[C@@]54C)C3(C)C)OC(CO)C(O)C2O)C(O)C(O)C1O` (stereo not given in full) showed a TGI of over 100 µM. `c1ccc(C(C2=Nc3cccc4cccc(c34)N2)c2ccccc2)cc1` showed a TGI of over 100 µM. In the case of `CC1=CC(=O)[C@@H](O)[C@]2(C)[C@H]3[C@@]4(O)OC[C@]35[C@H]([C@@H](C)[C@H]4O)[C@@H](OC(=O)C(C)(C)CO)C(=O)O[C@@H]5C[C@@H]12`, the TGI is reported as 1.9 µM.

What follows are compounds tested on SR leukemia (assay: growth of human tumour cells (NCI), 48 h).
Compound `CN(Cc1cnc2nc(N)nc(N)c2n1)c1ccc(C(=O)NCCS(=O)(=O)O)cc1` has a TGI of over 100 µM.

What follows are compounds tested on MCF7 breast (assay: growth of human tumour cells (NCI), 48 h).
For `CN(Cc1cnc2nc(N)nc(N)c2n1)c1ccc(C(=O)NCCS(=O)(=O)O)cc1`, the TGI was over 100 µM. In the case of `O=C1NC(N/N=C/c2ccccc2)=N/C1=C\c1ccco1`, the TGI is reported as over 100 µM. With `O=C(C1OC1c1ccc(Cl)cc1)C12CC3CC(CC(C3)C1)C2` (stereo not given) the TGI was 73.9 µM. In the case of `O=[N+]([O-])c1cccc2nc3ccccc3c(NCCCCNc3c4ccccc4nc4cccc([N+](=O)[O-])c34)c12`, the TGI is reported as 0.412 µM. For `NC(=O)c1ccc(C(=O)Nc2ccc([As](=O)(O)O)cc2)cc1`, the TGI was over 100 µM. `O=C1NC(N/N=C/C(O)C(O)C(O)C(O)CO)=N/C1=C\c1ccco1` (stereo not given) gave a TGI of over 100 µM. For `C=C(C)[C@@H]1CCC2=C[C@@H](OC2=O)[C@@H](C(=C)C)C2=CC(C(=O)O)=C(C1)O2`, the TGI was over 100 µM. Compound `CC1OC(OC2C(O[C@H]3CC[C@@H]4C(=CC[C@@H]5[C@@]4(C)C(=O)C[C@]4(C)[C@@H]([C@H](C)CC[C@@H](O)C(C)(C)O)CC[C@@]54C)C3(C)C)OC(CO)C(O)C2O)C(O)C(O)C1O` (stereo not given in full) has a TGI of over 100 µM. For `c1ccc(C(C2=Nc3cccc4cccc(c34)N2)c2ccccc2)cc1`, the TGI was over 100 µM. With `CC1=CC(=O)[C@@H](O)[C@]2(C)[C@H]3[C@@]4(O)OC[C@]35[C@H]([C@@H](C)[C@H]4O)[C@@H](OC(=O)C(C)(C)CO)C(=O)O[C@@H]5C[C@@H]12` the TGI was over 100 µM.

What follows are compounds tested on RXF 393 renal (assay: growth of human tumour cells (NCI), 48 h).
`O=C1NC(N/N=C/c2ccccc2)=N/C1=C\c1ccco1` was tested, and the TGI was 80.4 µM. Compound `O=C(C1OC1c1ccc(Cl)cc1)C12CC3CC(CC(C3)C1)C2` (stereo not given) has a TGI of 39.2 µM. For `O=[N+]([O-])c1cccc2nc3ccccc3c(NCCCCNc3c4ccccc4nc4cccc([N+](=O)[O-])c34)c12`, the TGI was 0.117 µM. Work on `NC(=O)c1ccc(C(=O)Nc2ccc([As](=O)(O)O)cc2)cc1` yielded a TGI of over 100 µM. With `O=C1NC(N/N=C/C(O)C(O)C(O)C(O)CO)=N/C1=C\c1ccco1` (stereo not given) the TGI was over 100 µM. Compound `C=C(C)[C@@H]1CCC2=C[C@@H](OC2=O)[C@@H](C(=C)C)C2=CC(C(=O)O)=C(C1)O2` has a TGI of over 100 µM. `CC1OC(OC2C(O[C@H]3CC[C@@H]4C(=CC[C@@H]5[C@@]4(C)C(=O)C[C@]4(C)[C@@H]([C@H](C)CC[C@@H](O)C(C)(C)O)CC[C@@]54C)C3(C)C)OC(CO)C(O)C2O)C(O)C(O)C1O` (stereo not given in full) was tested, and the TGI was over 100 µM. With `c1ccc(C(C2=Nc3cccc4cccc(c34)N2)c2ccccc2)cc1` the TGI was 61.5 µM. `CC1=CC(=O)[C@@H](O)[C@]2(C)[C@H]3[C@@]4(O)OC[C@]35[C@H]([C@@H](C)[C@H]4O)[C@@H](OC(=O)C(C)(C)CO)C(=O)O[C@@H]5C[C@@H]12` was tested, and the TGI was 2.23 µM.
